Assay results taken from PubChem BioAssay AID248 (DTP/NCI, 2004).
Where “and” joins values, the source holds several entries; their conditions need not be identical. Equal entries are not always repeated. Toxic doses and inconclusive results are not listed. Cut-off read from the data, not from the text of the source: active = T/C of 150% or more; inactive = T/C below 125%.

Test system: L1210 leukemia ip in BDF1 mice, survival T/C
Assay: NCI In Vivo Anticancer Drug Screen. Data for tumor model L1210 Leukemia (intraperitoneal) in B6D2F1 (BDF1) mice
Conditions: endpoint: mean survival time, higher = longer survival
Outline: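 Survival endpoint. Drug-treated group vs vehicle group, expressed as T divided by C. Tumor passaged by transplantation.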

[1] = dose: 100.0 mg/kg/injection, schedule: Q01DX001 (ip), vehicle: saline with Tween-80
[2] = dose: 100.0 mg/kg/injection, schedule: Q01DX009 (ip), vehicle: saline with Tween-80
[3] = dose: 100.0 mg/kg/injection, schedule: Q04DX002 (ip), vehicle: saline with Tween-80
[4] = dose: 200.0 mg/kg/injection, schedule: Q01DX001 (ip), vehicle: saline with Tween-80
[5] = dose: 200.0 mg/kg/injection, schedule: Q01DX009 (ip), vehicle: saline with Tween-80
[6] = dose: 200.0 mg/kg/injection, schedule: Q04DX002 (ip), vehicle: saline with Tween-80
[7] = dose: 400.0 mg/kg/injection, schedule: Q01DX001 (ip), vehicle: saline with Tween-80
[8] = dose: 400.0 mg/kg/injection, schedule: Q04DX002 (ip), vehicle: saline with Tween-80
[9] = dose: 100.0 mg/kg/injection, schedule: Q04DX003 (ip), vehicle: saline with Tween-80
[10] = dose: 200.0 mg/kg/injection, schedule: Q04DX003 (ip), vehicle: saline with Tween-80
[11] = dose: 400.0 mg/kg/injection, schedule: Q04DX003 (ip), vehicle: saline with Tween-80
[12] = dose: 100.0 mg/kg/injection, schedule: Q01DX009 (ip), vehicle: Klucel (hydroxypropylcellulose) (HPC)
[13] = dose: 100.0 mg/kg/injection, schedule: Q04DX003 (ip), vehicle: Klucel (hydroxypropylcellulose) (HPC)
[14] = dose: 200.0 mg/kg/injection, schedule: Q01DX009 (ip), vehicle: Klucel (hydroxypropylcellulose) (HPC)
[15] = dose: 200.0 mg/kg/injection, schedule: Q04DX003 (ip), vehicle: Klucel (hydroxypropylcellulose) (HPC)
[16] = dose: 400.0 mg/kg/injection, schedule: Q01DX009 (ip), vehicle: Klucel (hydroxypropylcellulose) (HPC)
[17] = dose: 400.0 mg/kg/injection, schedule: Q04DX003 (ip), vehicle: Klucel (hydroxypropylcellulose) (HPC)

Measured: T/C

c1ccc2c3csc4ccccc4c-3nc2c1
inactive: dose: 6.25 mg/kg/injection, schedule: Q01DX009 (ip), vehicle: saline 97 % of control | dose: 12.5 mg/kg/injection, schedule: Q01DX009 (ip), vehicle: saline 101 % of control | dose: 12.5 mg/kg/injection, schedule: Q04DX003 (ip), vehicle: Klucel (hydroxypropylcellulose) (HPC) 94 % of control | dose: 25.0 mg/kg/injection, schedule: Q01DX009 (ip), vehicle: saline 103 % of control | dose: 25.0 mg/kg/injection, schedule: Q04DX003 (ip), vehicle: Klucel (hydroxypropylcellulose) (HPC) 94 % of control | dose: 35.0 mg/kg/injection, schedule: Q01DX009 (ip), vehicle: Klucel (hydroxypropylcellulose) (HPC) 91 % of control

Cc1ccc(C)c(NC(=O)NCCN(C)c2ccccc2)c1
inactive: [1] 96 % of control | [2] 87 % of control | [3] 89 % of control and 91 % of control | [4] 93 % of control | [5] 89 % of control | [6] 89 % of control and 91 % of control | [7] 92 % of control | dose: 400.0 mg/kg/injection, schedule: Q01DX009 (ip), vehicle: saline with Tween-80 101 % of control | [8] 89 % of control and 91 % of control

O=C(O)CCCNC(=O)C(F)(F)F
inactive: [1] 95 % of control and 98 % of control | [3] 101 % of control and 103 % of control | [9] 100 % of control | [4] 95 % of control and 91 % of control | [6] 95 % of control and 92 % of control | [10] 95 % of control and 96 % of control | [7] 96 % of control and 92 % of control | [8] 100 % of control and 108 % of control | [11] 93 % of control and 100 % of control

O=c1c(-c2ccccc2)c(-c2ccccc2)c1=O
inactive: dose: 75.0 mg/kg/injection, schedule: Q01DX001 (ip), vehicle: saline 91 % of control | dose: 150.0 mg/kg/injection, schedule: Q01DX001 (ip), vehicle: saline 96 % of control

O=C(Nc1ccc(Nc2ccncc2)cc1)c1ccc(Nc2ccnc3ccc([N+](=O)[O-])cc23)cc1
inactive: [12] 92 % of control | [13] 101 % of control | [14] 109 % of control | [15] 97 % of control | [16] 95 % of control | [17] 108 % of control

CCC(C)C(=O)Nc1ccc(Cl)c(Cl)c1 (configuration not stated)
inactive: dose: 100.0 mg/kg/injection, schedule: Q01DX001 (ip), vehicle: Klucel (hydroxypropylcellulose) (HPC) 108 % of control | dose: 200.0 mg/kg/injection, schedule: Q01DX001 (ip), vehicle: Klucel (hydroxypropylcellulose) (HPC) 95 % of control | dose: 222.0 mg/kg/injection, schedule: Q01DX Z (ip), vehicle: methylcellulose (MC) 90 % of control | dose: 333.0 mg/kg/injection, schedule: Q01DX Z (ip), vehicle: methylcellulose (MC) 102 % of control | dose: 400.0 mg/kg/injection, schedule: Q01DX001 (ip), vehicle: Klucel (hydroxypropylcellulose) (HPC) 95 % of control | dose: 500.0 mg/kg/injection, schedule: Q01DX Z (ip), vehicle: methylcellulose (MC) 96 % of control

Cc1cccc(Cl)c1NC(=O)Cn1cccc1
inactive: dose: 25.0 mg/kg/injection, schedule: Q01DX009 (ip), vehicle: Klucel (hydroxypropylcellulose) (HPC) 95 % of control | dose: 50.0 mg/kg/injection, schedule: Q01DX009 (ip), vehicle: Klucel (hydroxypropylcellulose) (HPC) 95 % of control | dose: 75.0 mg/kg/injection, schedule: Q01DX009 (ip), vehicle: Klucel (hydroxypropylcellulose) (HPC) 94 % of control | [13] 100 % of control | [15] 93 % of control

O=C(Nc1ccccc1O)c1ccc([N+](=O)[O-])cc1
inactive: [12] 100 % of control | [14] 91 % of control | [16] 93 % of control

CC(C)(C)c1cccc(Cl)c1O
inactive: dose: 25.0 mg/kg/injection, schedule: Q01DX009 (ip), vehicle: saline with Tween-80 102 % of control | dose: 50.0 mg/kg/injection, schedule: Q01DX009 (ip), vehicle: saline with Tween-80 93 % of control | [2] 96 % of control and 98 % of control

Nc1nc2ncc(CNc3ccc(C(=O)NC(CCC(=O)O)C(=O)O)nc3)nc2c(=O)[nH]1 (configuration not stated)
inactive: dose: 0.75 mg/kg/injection, schedule: Q01DX009 (ip), vehicle: alkali diluted with saline 105 % of control | dose: 1.5 mg/kg/injection, schedule: Q01DX009 (ip), vehicle: alkali diluted with saline 102 % of control | dose: 3.0 mg/kg/injection, schedule: Q01DX009 (ip), vehicle: alkali diluted with saline 111 % of control | dose: 6.0 mg/kg/injection, schedule: Q01DX009 (ip), vehicle: alkali diluted with saline 102 % of control | dose: 12.0 mg/kg/injection, schedule: Q01DX009 (ip), vehicle: alkali diluted with saline 100 % of control | dose: 18.0 mg/kg/injection, schedule: Q01DX009 (ip), vehicle: alkali diluted with saline 112 % of control | dose: 24.0 mg/kg/injection, schedule: Q01DX009 (ip), vehicle: alkali diluted with saline 108 % of control | dose: 36.0 mg/kg/injection, schedule: Q01DX009 (ip), vehicle: alkali diluted with saline 108 % of control | dose: 48.0 mg/kg/injection, schedule: Q01DX009 (ip), vehicle: alkali diluted with saline 118 % of control | dose: 75.0 mg/kg/injection, schedule: Q01DX001 (ip), vehicle: alkali diluted with saline 111 % of control | dose: 150.0 mg/kg/injection, schedule: Q01DX001 (ip), vehicle: alkali diluted with saline 105 % of control

Cn1cnc2c(SCc3ccccc3)ncnc21
inactive: dose: 75.0 mg/kg/injection, schedule: Q01DX009 (ip), vehicle: saline with Tween-80 97 % of control | [2] 104 % of control | [5] 117 % of control

CCCCCCCCCCCCC/C=C/CC(CC(=O)O)C(=O)Nc1ccc(-n2c(=O)cc(C)n2C)cc1 (configuration not stated)
inactive: [9] 92 % of control | [10] 94 % of control | [11] 92 % of control

Nc1c(Br)cc([N+](=O)[O-])cc1Br
inactive: [13] 111 % of control | [15] 95 % of control | [17] 105 % of control

C/C(C/C(C)=N\N=C(N)N)=N/N=C(N)N
inactive: dose: 15.0 mg/kg/injection, schedule: Q01DX Z (ip), vehicle: carboxymethylcellulose (CMC) 96 % of control | dose: 30.0 mg/kg/injection, schedule: Q01DX Z (ip), vehicle: carboxymethylcellulose (CMC) 98 % of control | dose: 60.0 mg/kg/injection, schedule: Q01DX Z (ip), vehicle: carboxymethylcellulose (CMC) 95 % of control | dose: 60.0 mg/kg/injection, schedule: Q01DX Z (oral), vehicle: carboxymethylcellulose (CMC) 90 % of control | dose: 120.0 mg/kg/injection, schedule: Q01DX Z (ip), vehicle: carboxymethylcellulose (CMC) 95 % of control | dose: 120.0 mg/kg/injection, schedule: Q01DX Z (oral), vehicle: carboxymethylcellulose (CMC) 90 % of control | dose: 240.0 mg/kg/injection, schedule: Q01DX Z (oral), vehicle: carboxymethylcellulose (CMC) 96 % of control | dose: 480.0 mg/kg/injection, schedule: Q01DX Z (oral), vehicle: carboxymethylcellulose (CMC) 96 % of control

COc1cc(-c2nc3ccccc3c(=O)o2)cc(OC)c1OC
inactive: [2] 105 % of control | [9] 103 % of control | [5] 91 % of control | [10] 89 % of control | [11] 97 % of control

CCCCC(=O)N/N=C/c1cccc(OC)c1OC
inactive: dose: 100.0 mg/kg/injection, schedule: Q01DX001 (ip), vehicle: carboxymethylcellulose (CMC) 92 % of control | dose: 200.0 mg/kg/injection, schedule: Q01DX001 (ip), vehicle: carboxymethylcellulose (CMC) 92 % of control | dose: 400.0 mg/kg/injection, schedule: Q01DX001 (ip), vehicle: carboxymethylcellulose (CMC) 101 % of control

O=C(CCl)Oc1c(Cl)c(Cl)c(Cl)c(Cl)c1Cl
inactive: dose: 6.25 mg/kg/injection, schedule: Q04DX003 (ip), vehicle: alcohol 100 % of control | dose: 12.5 mg/kg/injection, schedule: Q04DX003 (ip), vehicle: alcohol 98 % of control | dose: 25.0 mg/kg/injection, schedule: Q04DX003 (ip), vehicle: alcohol 98 % of control | dose: 100.0 mg/kg/injection, schedule: Q04DX003 (ip), vehicle: alcohol 111 % of control

O=C1OC(=O)c2c(Br)cccc21
inactive: dose: 5.0 mg/kg/injection, schedule: Q04DX003 (ip), vehicle: Klucel (hydroxypropylcellulose) (HPC) 102 % of control | dose: 10.0 mg/kg/injection, schedule: Q04DX003 (ip), vehicle: Klucel (hydroxypropylcellulose) (HPC) 100 % of control | dose: 20.0 mg/kg/injection, schedule: Q04DX003 (ip), vehicle: Klucel (hydroxypropylcellulose) (HPC) 114 % of control
